In publication PMC10648349, “Aromatic Diboronic Acids as Effective KPC/AmpC Inhibitors” (Molecules, 2023):
In brackets after ≈: the same amount, converted by molar mass.

Legend:
C. krusei ATCC 6258 = assay: antifungal activity (disc-diffusion, MIC, MFC); format: cell-based, Candida krusei; conditions: Pichia kudriavzevii, ATCC6258; for MIC: fluconazole by Etest
Method in brief: (§1)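 Reference drugs were nitrofurantoin for Gram-negative rods, linezolid for Gram-positive bacteria and fluconazole for yeasts. Test agents were dissolved in DMSO and assessed by disc diffusion (0.4 mg/disc), MIC, and MBC or MFC per EUCAST/CLSI.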

[1] = test system: E. coli 77 CMY-2-positive; assay: combination disc test CDT-AmpC; format: cell-based; conditions: Escherichia coli, read-out: Diameter of inhibition zone, CAZ-30 disc with agent; for zone of inhibition at 300 µg/disc: agent 0.3 mg per disc
[2] = test system: P. aeruginosa MUW 700 cAmpC-positive; assay: checkerboard microdilution, antibiotic plus tested agent; format: cell-based, Pseudomonas aeruginosa
Method in brief: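 Chequerboard layout: tested agent in three two-fold steps (4–16 mg/L) crossed with seven β-lactam dilutions (1–64 mg/L), meropenem for KPC strains and ceftazidime for the cAmpC strain. FICI from first non-growth wells, off-scale MICs raised one doubling; ≤0.5 counts as synergy, >4 antagonism.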

[3] = test system: K. pneumoniae ATCC BAA 1705 KPC-2-positive; assay: combination disc test CDT-KPC; format: cell-based; conditions: Klebsiella pneumoniae, BAA1705, read-out: Diameter of inhibition zone, MEM-10 disc with agent; for zone of inhibition at 300 µg/disc: agent 0.3 mg per disc
E. coli 76 KPC-2(+) = assay: MIC of tested agent alone, microdilution; format: cell-based; conditions: Escherichia coli; read-out: MIC of agent alone
Method in brief: (§2)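 Checkerboard synergy testing crossed two-fold dilutions of the tested agents or PBA (4–16 mg/L) with β-lactam dilutions (1–64 mg/L), and antibiotic MICs were read at each agent level. FICI was derived from the interface wells. Separately, each agent's own MIC came from standard microdilution.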

[4] = test system: K. pneumoniae 81 KPC-3(+); assay: MIC of tested agent alone, microdilution; format: cell-based; conditions: Klebsiella pneumoniae; read-out: MIC of agent alone
Method in brief: as §2

[5] = test system: K. pneumoniae ATCC BAA-1705 KPC-2(+); assay: MIC of tested agent alone, microdilution; format: cell-based; conditions: Klebsiella pneumoniae, ATCCBAA1705; read-out: MIC of agent alone
Method in brief: as §2

E. coli 77 CMY-2(+) = assay: MIC of tested agent alone, microdilution; format: cell-based; conditions: Escherichia coli; read-out: MIC of agent alone
Method in brief: as §2

[6] = test system: K. pneumoniae 83 KPC-3(+), CTX-M-3(+); assay: MIC of tested agent alone, microdilution; format: cell-based; conditions: Klebsiella pneumoniae; read-out: MIC of agent alone
Method in brief: as §2

[7] = test system: P. aeruginosa MUW 700 AmpC(+); assay: MIC of tested agent alone, microdilution; format: cell-based; conditions: Pseudomonas aeruginosa; read-out: MIC of agent alone
Method in brief: as §2

[8] = MTT-based viability assay; format: cell-based; conditions: human, MRC-5 human fibroblasts, 72 h, read-out: Viability of MRC-5 cells (% of viable cells ± SD)
Method in brief: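 Percent viable cells relative to control, measured in triplicate by MTT read-out at 570 nm. Cells: MRC-5 human fibroblasts cultured at 37 °C, 5% CO2 in MEME plus 10% FBS.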

[9] = test system: C. guilliermondii IBA 155; assay: antifungal activity (disc-diffusion, MIC, MFC); format: cell-based, Candida guilliermondii; conditions: Meyerozyma guilliermondii, IBA155; for MIC: fluconazole by Etest
Method in brief: as §1

C. tropicalis IBA 171 = assay: antifungal activity (disc-diffusion, MIC, MFC); format: cell-based; conditions: Candida tropicalis, IBA171; for MIC: fluconazole by Etest
Method in brief: as §1

S. cerevisiae ATCC 9763 = assay: antifungal activity (disc-diffusion, MIC, MFC); format: cell-based; conditions: Saccharomyces cerevisiae, ATCC9763; for MIC: fluconazole by Etest; for zone of inhibition at 0.4 mg/disc: 0.4 mg per disc, 9 mm disc (fluconazole 0.025 mg, 6 mm disc), - no zone, read-out: Diameter of inhibition zone
Method in brief: as §1

C. tropicalis ATCC 750 = assay: antifungal activity (disc-diffusion, MIC, MFC); format: cell-based; conditions: Candida tropicalis, ATCC750; for MIC: fluconazole by Etest
Method in brief: as §1

C. albicans ATCC 90028 = assay: antifungal activity (disc-diffusion, MIC, MFC); format: cell-based; conditions: Candida albicans, ATCC90028; for MIC: fluconazole by Etest
Method in brief: as §1

[10] = test system: C. parapsilosis ATCC 22019; assay: antifungal activity (disc-diffusion, MIC, MFC); format: cell-based, Candida parapsilosis; conditions: Lodderomyces parapsilosis, ATCC22019; for MIC: fluconazole by Etest
Method in brief: as §1

[11] = test system: P. aeruginosa MUW 700 cAmpC-positive; assay: combination disc test CDT-AmpC; format: cell-based; conditions: Pseudomonas aeruginosa, read-out: Diameter of inhibition zone, CAZ-30 disc with agent; for zone of inhibition at 300 µg/disc: agent 0.3 mg per disc
[12] = 0.4 mg per disc, 9 mm disc (fluconazole 0.025 mg, 6 mm disc), - no zone, read-out: Diameter of inhibition zone

| Compound | MIC (C. krusei ATCC 6258) | zone of inhibition at 300 µg/disc [1] | Average FICI with ceftazidime [2] | Interpretation of the average FICI with ceftazidime [2] | Interpretation of the lowest FICI with ceftazidime [2] | The lowest FICI with ceftazidime [2] | zone of inhibition at 300 µg/disc [3] | MIC (E. coli 76 KPC-2(+)) | MIC [4] | MIC [5] | MIC (E. coli 77 CMY-2(+)) | MIC [6] | MIC [7] | MIC [9] | MIC (C. tropicalis IBA 171) | MIC (S. cerevisiae ATCC 9763) | MIC (C. tropicalis ATCC 750) | MIC (C. albicans ATCC 90028) | MIC [10] | zone of inhibition at 300 µg/disc [11] | also measured |
| --- | --- | --- | --- | --- | --- | --- | --- | --- | --- | --- | --- | --- | --- | --- | --- | --- | --- | --- | --- | --- | --- |
| OB(O)c1ccccc1B(O)O [3a, phenylene-1,2-diboronic acid] | 400 µg/mL (≈ 2410 µM) | 23 mm | 0.61 | I (0.5 < FICI ≤ 4, indifference) | S (FICI ≤ 0.5, synergy) | 0.29 | 17 mm | 400 µg/mL | 400 µg/mL | 400 µg/mL | 400 µg/mL | 400 µg/mL | 400 µg/mL | > 400 µg/mL | > 400 µg/mL | 25 µg/mL (≈ 151 µM) | > 400 µg/mL | > 400 µg/mL | 25 µg/mL (≈ 151 µM) | 22 mm | viability at 72 h, 16 mg/L ([8]; 16 mg/L): 110 ± 9.3%; viability at 72 h, 32 mg/L ([8]; 32 mg/L): 106 ± 10.6%; viability at 72 h, 64 mg/L ([8]; 64 mg/L): 76.2 ± 4.2% |
| OB(O)c1cccc(F)c1B(O)O [3b] | 100 µg/mL (≈ 544 µM) | 25 mm | 0.60 | I (0.5 < FICI ≤ 4, indifference) | S (FICI ≤ 0.5, synergy) | 0.27 | 14 mm | > 400 µg/mL | > 400 µg/mL | > 400 µg/mL | > 400 µg/mL | > 400 µg/mL | > 400 µg/mL | 400 µg/mL (≈ 2180 µM) | 200 µg/mL (≈ 1090 µM) | 100 µg/mL (≈ 544 µM) | 200 µg/mL (≈ 1090 µM) | 400 µg/mL (≈ 2180 µM) | 200 µg/mL (≈ 1090 µM) | 22 mm | viability at 72 h, 12.5 mg/L [8]: 98.1 ± 6.1%; viability at 72 h, 25 mg/L [8]: 91.2 ± 13.5%; viability at 72 h, 50 mg/L [8]: 87.1 ± 8%; zone of inhibition at 0.4 mg/disc (S. cerevisiae ATCC 9763): 13 mm |
| OB(O)c1cc(F)c(B(O)O)c(F)c1F [1f] | 100 µg/mL (≈ 455 µM) |  | 0.43 | S (FICI ≤ 0.5, synergy) | S (FICI ≤ 0.5, synergy) | 0.27 |  | 100 µg/mL | 100 µg/mL | 100 µg/mL | 100 µg/mL | 100 µg/mL | > 400 µg/mL | 50 µg/mL (≈ 228 µM) | 50 µg/mL (≈ 228 µM) | 50 µg/mL (≈ 228 µM) | 100 µg/mL (≈ 455 µM) | 50 µg/mL (≈ 228 µM) | 100 µg/mL (≈ 455 µM) |  | zone of inhibition at 0.4 mg/disc (C. krusei ATCC 6258; [12]): 19 mm; zone of inhibition at 100 µg/disc ([1]; agent 0.1 mg per disc): 21 mm; zone of inhibition at 100 µg/disc ([3]; agent 0.1 mg per disc): 6 mm; viability at 72 h, 12.5 mg/L [8]: 97.4 ± 2.2%; viability at 72 h, 25 mg/L [8]: 89.9 ± 1.9%; viability at 72 h, 50 mg/L [8]: 78.1 ± 0.9%; zone of inhibition at 0.4 mg/disc [9, 12]: 29 mm; zone of inhibition at 0.4 mg/disc (C. tropicalis IBA 171; [12]): 20 mm; zone of inhibition at 0.4 mg/disc (S. cerevisiae ATCC 9763): 20 mm; zone of inhibition at 0.4 mg/disc (C. tropicalis ATCC 750; [12]): 18 mm; zone of inhibition at 0.4 mg/disc (C. albicans ATCC 90028; [12]): 24 mm; zone of inhibition at 0.4 mg/disc [10, 12]: 20 mm; zone of inhibition at 100 µg/disc ([11]; agent 0.1 mg per disc): 17 mm |
